The numbers were not newly measured in patent US9683982B2, “Method for diagnosis and/or prognosis of cancers by analysis of the mechanical properties of tumor cells” (Universität Leipzig, priority 2010, dated 2017), which cites them from elsewhere.

For this data set, the system named is cells of the cell line MCF7. The settings on record: addition of 100 nmol/l TPA for 18 h in culture.

With `CCCCCCCCCCCCCC(=O)O[C@@H]1[C@@H](C)[C@@]2(O)[C@@H](C=C(CO)C[C@]3(O)C(=O)C(C)=C[C@@H]23)[C@@H]2C(C)(C)[C@]12OC(C)=O` [TPA, 12-O-tetradecanoylphorbol-13-acetate], the “invasive potential and metastasis-forming potential” value is listed as “significant increase”.
